Results from ChEMBL document CHEMBL3588779, “Novel 3-(1H-indol-3-yl)-2-[3-(4-methoxyphenyl)ureido]propanamides as selective agonists of human formyl-peptide receptor 2” (Bioorg Med Chem, 2015).

Experiments:
fMet-Leu-Phe receptor = molecular target: T1, fMet-Leu-Phe receptor (Homo sapiens, UniProt P21462); test: Agonist activity at human FPR1 transfected in human HL60 cells assessed as stimulation of Ca2+ influx measured every 5 secs for 240 secs by FLIPR assay; format: functional, cell-based, HL-60
T1 sequence (P21462 whole entry): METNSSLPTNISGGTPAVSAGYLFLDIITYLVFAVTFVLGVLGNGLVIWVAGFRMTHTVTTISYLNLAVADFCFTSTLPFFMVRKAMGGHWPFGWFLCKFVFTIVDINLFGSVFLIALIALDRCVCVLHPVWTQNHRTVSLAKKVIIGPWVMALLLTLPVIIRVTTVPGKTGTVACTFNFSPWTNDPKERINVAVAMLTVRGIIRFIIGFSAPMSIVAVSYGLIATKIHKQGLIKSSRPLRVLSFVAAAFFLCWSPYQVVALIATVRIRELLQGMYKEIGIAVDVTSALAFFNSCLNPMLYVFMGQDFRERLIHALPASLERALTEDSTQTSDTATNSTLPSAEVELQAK

Liver microsome [1] = details: rat, microsomes, 1 µM
[2] = molecular target: T2, Formyl peptide receptor-related sequence 1 (Mus musculus) (UniProt O08790); test: Agonist activity at FPR2 in BALB/c mouse assessed as stimulation of Ca2+ influx measured every 5 secs for 240 secs by FLIPR assay relative to fMLF; format: functional
T2 sequence (whole entry): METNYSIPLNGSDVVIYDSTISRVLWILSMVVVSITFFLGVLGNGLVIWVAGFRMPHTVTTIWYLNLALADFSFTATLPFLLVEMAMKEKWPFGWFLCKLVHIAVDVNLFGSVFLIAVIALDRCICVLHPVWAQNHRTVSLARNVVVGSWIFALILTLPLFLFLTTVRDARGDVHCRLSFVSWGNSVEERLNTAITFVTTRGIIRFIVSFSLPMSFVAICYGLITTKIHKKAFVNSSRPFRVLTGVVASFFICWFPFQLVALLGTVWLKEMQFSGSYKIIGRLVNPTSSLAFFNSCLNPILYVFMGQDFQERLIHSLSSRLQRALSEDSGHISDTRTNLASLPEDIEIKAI

[3] = molecular target: T3, N-formyl peptide receptor 2 (Homo sapiens) (UniProt P25090); test: Agonist activity at FPR2 in human PMN assessed as stimulation of Ca2+ influx measured every 5 secs for 240 secs by FLIPR assay relative to fMLF in presence of probenecid; format: functional
T3 sequence (whole entry): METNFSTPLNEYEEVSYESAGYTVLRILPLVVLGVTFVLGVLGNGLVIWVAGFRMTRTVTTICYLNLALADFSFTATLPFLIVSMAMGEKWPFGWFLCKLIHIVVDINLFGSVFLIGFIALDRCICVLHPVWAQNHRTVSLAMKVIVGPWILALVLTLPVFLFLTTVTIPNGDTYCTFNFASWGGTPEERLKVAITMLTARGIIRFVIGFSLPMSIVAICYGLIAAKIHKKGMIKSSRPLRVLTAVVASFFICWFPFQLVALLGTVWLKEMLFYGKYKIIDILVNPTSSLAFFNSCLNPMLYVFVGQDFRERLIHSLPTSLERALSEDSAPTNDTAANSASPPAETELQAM

[4] = molecular target: T4, N-formyl peptide receptor 2 (Homo sapiens, UniProt P25090); test: Agonist activity at FPR2 in human PMN assessed as stimulation of Ca2+ influx measured every 5 secs for 240 secs by FLIPR assay in absence of probenecid; format: functional
T4 sequence (P25090 whole entry): T3 sequence (whole entry)

[5] = molecular target: T3, N-formyl peptide receptor 2 (Homo sapiens); test: Agonist activity at human FPR2 transfected in human HL60 cells assessed as stimulation of Ca2+ influx measured every 5 secs for 240 secs by FLIPR assay relative to WKYMVm; format: functional, cell-based; details: HL-60
[6] = molecular target: T4, N-formyl peptide receptor 2; test: Agonist activity at FPR2 in human PMN assessed as stimulation of Ca2+ influx measured every 5 secs for 240 secs by FLIPR assay in presence of probenecid; format: functional
[7] = molecular target: T4, N-formyl peptide receptor 2; test: Agonist activity at human FPR2 transfected in human HL60 cells assessed as stimulation of Ca2+ influx measured every 5 secs for 240 secs by FLIPR assay; format: functional, cell-based, HL-60
Liver microsome [8] = details: rat, microsomes, 1 µM; remark: listed apart in the source
Description: Half life in rat liver microsomes at 1 uM preincubated for 10 mins followed by addition of NADPH regenerating system by LC-MS analysis

[9] = molecular target: T3, N-formyl peptide receptor 2 (Homo sapiens); test: Agonist activity at FPR2 in human PMN assessed as stimulation of Ca2+ influx measured every 5 secs for 240 secs by FLIPR assay relative to fMLF in absence of probenecid; format: functional
[10] = molecular target: T5, fMet-Leu-Phe receptor (Homo sapiens) (UniProt P21462); test: Agonist activity at human FPR1 transfected in human HL60 cells assessed as stimulation of Ca2+ influx measured every 5 secs for 240 secs by FLIPR assay relative to fMLF; format: functional, cell-based; details: HL-60
T5 sequence (whole entry): T1 sequence (P21462 whole entry)

Structure (SMILES) | EC50 (fMet-Leu-Phe receptor; hl-60) | CLH (Liver microsome [1]) | Efficacy [2] | Efficacy [3] | EC50 ([4]; read-out: EC50) | Efficacy [5] | EC50 ([6]; read-out: EC50) | EC50 ([7]; read-out: EC50) | t1/2 (Liver microsome [8]) | Efficacy [9] | EC50 [4] | EC50 [6] | EC50 ([7]; hl-60) | Efficacy [10] | EC50 (fMet-Leu-Phe receptor; read-out: EC50)
COc1ccc(NC(=O)N[C@H](Cc2c[nH]c3ccccc23)C(=O)NCC2(c3ccccn3)CCCCC2)cc1 | Not Active | 2476 µL/min/mg | 55% | 115% | 620 nM | 90% | 490 nM | 310 nM | 0.6 min | 40% | – | – | – | – | –
COc1ccc(C2(CNC(=O)[C@](C)(Cc3c[nH]c4ccccc34)NC(=O)Nc3ccc([N+](=O)[O-])cc3)CCCCC2)nc1 | – | 314.1 µL/min/mg | – | – | – | – | – | – | 4.4 min | – | – | – | – | – | –
COc1ccc(NC(=O)N[C@H](Cc2c[nH]c3ccccc23)C(=O)NCC2(c3cccnc3)CCCCC2)cc1 | Not Active | – | 80% | – | – | – | – | – | – | – | Not Active | Not Active | Not Active | – | –
O=C(O)Cc1ccccc1Nc1c(Cl)cccc1Cl [DICLOFENAC] | – | 159.8 µL/min/mg | – | – | – | – | – | – | 8.7 min | – | – | – | – | – | –
COc1ccc(NC(=O)N[C@@H](Cc2c[nH]c3ccccc23)C(=O)NCC2(c3ccccn3)CCCCC2)cc1 | – | 2173.4 µL/min/mg | 80% | 120% | 1800 nM | 135% | 450 nM | 430 nM | – | 85% | – | – | – | 115% | 950 nM
COc1ccc(NC(=O)N[C@H](Cc2c[nH]c3ccccc23)C(=O)NCC2(c3ccc(F)cc3)CCCCC2)cc1 | Not Active | – | 25% | – | – | – | – | – | – | – | Not Active | Not Active | Not Active | – | –
COc1ccc(NC(=O)N[C@@H](Cc2c[nH]c3ccccc23)C(=O)NCC2(c3ccccc3)CCCCC2)cc1 | Not Active | – | 60% | – | – | – | – | – | – | – | Not Active | Not Active | Not Active | – | –
COc1ccc(NC(=O)N[C@@H](Cc2c[nH]c3ccccc23)C(=O)NCC2(c3ccc(OC)cn3)CCCCC2)cc1 | – | 1162.4 µL/min/mg | 110% | 105% | – | 120% | – | – | 1.1 min | – | – | – | – | 130% | 430 nM
COc1ccc(NC(=O)N[C@@H](Cc2c[nH]c3ccccc23)C(=O)NCC2(c3cccnc3)CCCCC2)cc1 | Not Active | – | 75% | 105% | 1800 nM | 75% | 270 nM | 730 nM | – | 30% | – | – | – | – | –
COc1ccc(NC(=O)N[C@H](Cc2c[nH]c3ccccc23)C(=O)NCC2(c3ccc(OC)cn3)CCCCC2)cc1 | Not Active | 1290.6 µL/min/mg | 30% | 95% | – | 100% | – | – | 1.2 min | 40% | – | – | – | – | –
COc1ccc(NC(=O)N[C@H](Cc2c[nH]c3ccccc23)C(=O)NCC2(c3ccccc3)CCCCC2)cc1 | Not Active | – | 35% | 40% | – | 65% | 970 nM | 260 nM | – | – | Not Active | – | – | – | –
COc1ccc(NC(=O)N[C@H](Cc2c[nH]c3ccccc23)C(=O)NCC2(c3ccnc(F)c3)CCCCC2)cc1 | Not Active | – | 65% | – | – | – | – | – | – | – | Not Active | Not Active | Not Active | – | –
COc1ccc(NC(=O)N[C@@H](Cc2c[nH]c3ccccc23)C(=O)NCC2(c3ccc(F)cc3)CCCCC2)cc1 | Not Active | – | 25% | 55% | – | 40% | 1100 nM | 860 nM | – | – | Not Active | – | – | – | –
COc1ccc(NC(=O)N[C@@H](Cc2c[nH]c3ccccc23)C(=O)NCC2(c3ccnc(F)c3)CCCCC2)cc1 | Not Active | – | 50% | 130% | 12600 nM | 115% | 660 nM | 1600 nM | – | 55% | – | – | – | – | –
